In patent US6956040B2, “Oxazolidinone piperazinyl derivatives as potential antimicrobials” (Ranbaxy Laboratories Limited, priority 2001, dated 2005):
In brackets after ≈: the same amount, converted by molar mass.

Assays:
S. pneumoniae = experiment: Summary of in vitro activity (MIC) against S. pneumoniae; format: cell-based, Streptococcus pneumoniae; settings: S. pneumoniae; for MIC50 / MIC90: Number 19
Procedure: (§1) The compounds of the invention display antibacterial activity when tested by the agar incorporation method. The following minimum inhibitory concentrations (μg/ml) were obtained for representative compounds of the invention which are given below in the following tables.
(§2) Briefly, the compounds were dissolved in DMSO and doubling dilution of the compounds were incorporated into Meuller Hilton agar before solidification. Inoculum was prepared by suspending 4 to 5 colonies into 5 ml of normal saline solution and adjusting the turbidity to 0.5 Macfarland turbidity standard tables (1.5×10^8 CFU/ml), after appropriate dilutions, 10^4 CFU/spot was transfered into the surface of dried plate and incubated for 18 hours (24 hours for MRSN studies). The concentration showing no growth of the inoculated culture was recorded as the MIC. Appropriate ATCC standard strains were simultaneously tested and result recorded only when the MIC's against standard antibiotics were within the acceptable range.

VRE 6A = experiment: MIC, agar incorporation method; format: cell-based, Enterococcus faecium; settings: VRE 6A; agar incorporation
Source text: as §1
(§3) • 1) S.aureus ATCC 25923—Staphylococus aureus ATCC 25923 • 2) MRSA 15187—Methicillin Resistant Staphylococcus aureus • 3) Ent. faecalis ATCC 29212—Enterococcus faecalis ATCC 29212 • 4) Ent. faecium 6A—Enterococcus faecium 6A Van®, Cipro® • 5) Strep. pne. ATCC 6303—Streptococcus pneumoniae ATCC 6303 • 6) Strep. pyog. ATCC 19615—Streptococcus pyogenes • 7) S. epidermidis—Staphylococcus epidermidis ATCC 12228
as §2

S. aureus = experiment: Summary of in vitro activity (MIC) against S. aureus; format: cell-based, Staphylococcus aureus; settings: S. aureus; for MIC50 / MIC90: Number 8
Procedure: as §1, §2

MRSA 562 [1] = experiment: In vivo activity against MRSA 562 (ED50); set-up: species or system Staphylococcus aureus
MRSA 33 = experiment: MIC, agar incorporation method; format: cell-based, Staphylococcus aureus; settings: MRSA 33; agar incorporation
Procedure: as §1, §2

MRSA 562 [2] = experiment: MIC, agar incorporation method; format: cell-based, Staphylococcus aureus; settings: MRSA 562
Procedure: as §1, §2

S. pneum 6303 = experiment: MIC, agar incorporation method; format: cell-based, Streptococcus pneumoniae; settings: S. pneum 6303; agar incorporation
Source text: as §1, §3, §2

S. pneum AB 34 = experiment: MIC, agar incorporation method; format: cell-based, Streptococcus pneumoniae; settings: S. pneum AB 34; agar incorporation
Procedure: as §1, §2

E. faecalis 29212 = experiment: MIC, agar incorporation method; format: cell-based, Enterococcus faecalis; settings: E. faecalis 29212; agar incorporation
Source text: as §1, §3, §2

E. faecalis = experiment: Summary of in vitro activity (MIC) against E. faecalis; format: cell-based, Enterococcus faecalis; settings: E. faecalis; for MIC50 / MIC90: Number 7
Procedure: as §1, §2

G+ve = experiment: Summary of in vitro activity (MIC) against G+ve bacteria; format: cell-based; settings: for MIC50 / MIC90: G+ve, Number 49; for Geometric Mean of in vitro activity (MIC): Gram +ve
Procedure: as §1, §2

S. pyogenes 19615 = experiment: MIC, agar incorporation method; format: cell-based, Streptococcus pyogenes; settings: S. pyogenes 19615; agar incorporation
Source text: as §1, §3, §2

S. aureus 25923 = experiment: MIC, agar incorporation method; format: cell-based, Staphylococcus aureus; settings: S. aureus 25923; agar incorporation
Source text: as §1, §3, §2

MRSA 15187 = experiment: MIC, agar incorporation method; format: cell-based, Staphylococcus aureus; settings: MRSA 15187; agar incorporation
Source text: as §1, §3, §2

[3] = Changes in MIC under different conditions: Agar MIC; format: cell-based; settings: strain not given
Procedure: as §1, §2

[4] = Changes in MIC under different conditions: Broth MIC; format: cell-based; settings: strain not given

Compound | Geometric Mean of in vitro activity (MIC) (S. pneumoniae) | MIC50 (S. pneumoniae) | MIC90 (S. pneumoniae) | MIC (VRE 6A) | Geometric Mean of in vitro activity (MIC) (S. aureus) | MIC50 (S. aureus) | MIC90 (S. aureus) | ED50 (mg/kg body weight) PO (MRSA 562 [1]) | MIC (MRSA 33) | MIC (MRSA 562 [2]; Table 5) | MIC (S. pneum 6303) | MIC (S. pneum AB 34) | MIC (E. faecalis 29212) | Geometric Mean of in vitro activity (MIC) (E. faecalis) | MIC50 (E. faecalis) | MIC90 (E. faecalis) | MIC50 (G+ve) | MIC (S. pyogenes 19615) | MIC (S. aureus 25923) | MIC (MRSA 15187) | also measured
CC(=O)NC[C@H]1CN(c2ccc(N3CCN(C(=O)c4ccc([N+](=O)[O-])o4)CC3)c(F)c2)C(=O)O1 [Compound No. 06, (S)-N-[[3-Fluoro-4-[N-1[4-(5-nitro-2-furoyl)piperazinyl]phenyl]-2-oxo-5-oxazolidinyl]methyl]acetamide] | 1.27 mg/L | 2 mg/L (≈ 4.21 µM) | 2 mg/L (≈ 4.21 µM) | 1 mg/L (≈ 2.1 µM) | 0.74 mg/L | 1 mg/L (≈ 2.1 µM) | 1 mg/L (≈ 2.1 µM) | >25 mg/kg body weight | 0.5 mg/L (≈ 1.05 µM) | 1 mg/L (≈ 2.1 µM) | 2 mg/L (≈ 4.21 µM) | 2 mg/L (≈ 4.21 µM) | 1 mg/L (≈ 2.1 µM) | 0.92 mg/L | 1 mg/L (≈ 2.1 µM) | 1 mg/L (≈ 2.1 µM) | 1 mg/L (≈ 2.1 µM) | 2 mg/L (≈ 4.21 µM) | 1 mg/L (≈ 2.1 µM) | 0.5 mg/L (≈ 1.05 µM) | MIC90 (G+ve): 2 mg/L (≈ 4.21 µM); Geometric Mean of in vitro activity (MIC) (G+ve): 0.79 mg/L
CC(=O)NC[C@H]1CN(c2ccc(N3CCN(Cc4ccc([N+](=O)[O-])o4)CC3)c(F)c2)C(=O)O1 [Compound No. 15, (S)-N-[[3-[3-fluoro-4-[N-1-[4-{2-furyl-(5-nitro)methyl}]piperazinyl]phenyl]-2-oxo-5-oxazolidinyl]methyl]acetamide] | 1.04 mg/L | 2 mg/L (≈ 4.33 µM) | 4 mg/L (≈ 8.67 µM) | 1 mg/L (≈ 2.17 µM) | 1.63 mg/L | 2 mg/L (≈ 4.33 µM) | 2 mg/L (≈ 4.33 µM) | 4.33 mg/kg body weight | 2 mg/L (≈ 4.33 µM) | 2 mg/L (≈ 4.33 µM) | 1 mg/L (≈ 2.17 µM) | 2 mg/L (≈ 4.33 µM) | 2 mg/L (≈ 4.33 µM) | 1.6 mg/L | 2 mg/L (≈ 4.33 µM) | 2 mg/L (≈ 4.33 µM) | 1 mg/L (≈ 2.17 µM) | 1 mg/L (≈ 2.17 µM) | 2 mg/L (≈ 4.33 µM) | 2 mg/L (≈ 4.33 µM) | MIC (MRSA 562 [2]; agar incorporation, Table 1): 2 mg/L (≈ 4.33 µM); MIC90 (G+ve): 2 mg/L (≈ 4.33 µM); Geometric Mean of in vitro activity (MIC) (G+ve): 1.08 mg/L
CC(=O)NC[C@H]1CN(c2ccc(N3CCN(Cc4ccc([N+](=O)[O-])o4)CC3)c(F)c2)C(=O)O1.Cl [Compound No. 16] | – | – | – | 4 mg/L | – | – | – | – | 4 mg/L | – | 1 mg/L | 1 mg/L | 2 mg/L | – | – | – | – | 0.5 mg/L | 2 mg/L | 4 mg/L | Agar MIC [3]: 2 mg/L; Broth MIC +50% Sheep serum ([4]; +50% Sheep serum): 2 mg/L; Broth MIC Normal MH broth ([4]; Normal MH broth): 2 mg/L
CC(=O)NC[C@H]1CN(c2ccc(N3CC4C(C3)C4N(C)C(=O)Cc3cccs3)c(F)c2)C(=O)O1 (stereo partly drawn) [Compound No. 71, (S)-N-[[3-[3-Fluoro[4-[3-(1α, 5α, 6α)-6-[N-(2-thiopheneacetyl)-N-methyl]amino]-3-azabicyclo-[3.1.0]hexane]phenyl]-2-oxo-5-oxazolidinyl]methyl]acetamide] | – | – | – | 4 mg/L (≈ 8.22 µM) | – | – | – | >25 mg/kg body weight | 4 mg/L (≈ 8.22 µM) | 4 mg/L (≈ 8.22 µM) | 4 mg/L (≈ 8.22 µM) | 4 mg/L (≈ 8.22 µM) | 4 mg/L (≈ 8.22 µM) | – | – | – | – | 2 mg/L (≈ 4.11 µM) | 4 mg/L (≈ 8.22 µM) | 4 mg/L (≈ 8.22 µM) | –
